In patent publication US8299048B2, “Hexahydrocyclopentyl[f]indazole sulfonamides and derivatives thereof as selective glucocorticoid receptor modulators” (Merck Sharp & Dohme Corp., priority 2008, dated 2012):

Target: T1, glucocorticoid receptor (Homo sapiens, UniProt P04150)
T1 construct: endogenous in cells
T1 sequence (P04150 1-777): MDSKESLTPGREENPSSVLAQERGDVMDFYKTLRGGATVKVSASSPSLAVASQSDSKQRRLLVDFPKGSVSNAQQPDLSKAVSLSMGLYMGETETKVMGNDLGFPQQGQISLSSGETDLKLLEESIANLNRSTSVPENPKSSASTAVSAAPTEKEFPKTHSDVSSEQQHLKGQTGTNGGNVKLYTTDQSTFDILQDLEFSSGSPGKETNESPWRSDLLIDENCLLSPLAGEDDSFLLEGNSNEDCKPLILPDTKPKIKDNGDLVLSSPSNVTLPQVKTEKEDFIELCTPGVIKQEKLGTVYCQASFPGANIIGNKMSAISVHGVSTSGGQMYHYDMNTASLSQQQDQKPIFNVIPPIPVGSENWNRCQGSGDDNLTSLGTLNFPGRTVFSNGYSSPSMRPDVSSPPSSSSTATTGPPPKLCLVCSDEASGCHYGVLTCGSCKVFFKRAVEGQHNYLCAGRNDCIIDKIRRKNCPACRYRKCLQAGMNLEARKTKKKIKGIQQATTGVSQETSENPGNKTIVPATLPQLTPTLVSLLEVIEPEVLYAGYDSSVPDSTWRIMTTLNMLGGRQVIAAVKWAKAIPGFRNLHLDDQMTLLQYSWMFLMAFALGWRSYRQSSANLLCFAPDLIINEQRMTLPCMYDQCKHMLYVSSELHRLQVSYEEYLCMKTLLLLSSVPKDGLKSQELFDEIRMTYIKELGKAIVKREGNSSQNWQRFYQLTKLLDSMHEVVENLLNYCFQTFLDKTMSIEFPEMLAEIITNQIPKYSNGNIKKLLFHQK
Assay: Ligand binding assay (GR BIND)
Procedure, shortened: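 Displacement of tritiated dexamethasone (6 nM trace solution) from receptor in cell supernatant was measured after overnight incubation at 4 °C in molybdate-containing TEGM, pH 7.2, 2% ethanol. Hydroxylapatite pulled down the receptor–ligand complex for filter washing and scintillation counting, with dexamethasone as reference.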

| SMILES | Ki [nM] |
| --- | --- |
| C[C@]12Cc3cnn(-c4ccc(F)cc4)c3C=C1CC[C@@H]2CN(CCO)S(=O)(=O)c1ccc(F)cc1F [Example 82, 2,4-difluoro-N-{[(4αR,5S)-1-(4-fluorophenyl)-4α-methyl-1,4,4α,5,6,7-hexahydrocyclopenta[f]indazol-5-yl]methyl}-N-(2-hydroxyethyl)benzenesulfonamide] | 3.2 |
| C[C@]12Cc3cnn(-c4ccc(F)cc4)c3C=C1CC[C@@H]2CN(CCO)S(=O)(=O)c1cccc(C#N)c1 [Example 68, 3-cyano-N-{[(4αR,5S)-1-(4-fluorophenyl)-4α-methyl-1,4,4α,5,6,7-hexahydrocyclopenta[f]indazol-5-yl]methyl}-N-(2-hydroxyethyl)benezenesulfonamide] | 3.6 |
| C[C@]12Cc3cnn(-c4ccc(F)cc4)c3C=C1CC[C@@H]2CN(CCO)S(=O)(=O)c1ccccc1-c1ccccc1 [Example 84, N-{[(4αR,5S)-1-(4-fluorophenyl)-4α-methyl-1,4,4α,5,6,7-hexahydrocyclopenta[f]indazol-5-yl]methyl}-N-(2-hydroxyethyl)biphenyl-2-sulfonamide] | 2.6 |
| C[C@]12Cc3cnn(-c4ccc(F)cc4)c3C=C1CC[C@@H]2CN(CCO)S(=O)(=O)c1ccccc1Cl [Example 81, 2-chloro-N-{[(4αR,5S)-1-(4-fluorophenyl)-4α-methyl-1,4,4α,5,6,7-hexahydrocyclopenta[f]indazol-5-yl]methyl}-N-(2-hydroxyethyl)benzenesulfonamide] | 7.2 |
| C[C@]12Cc3cnn(-c4ccc(F)cc4)c3C=C1CC[C@@H]2CN(CCO)S(=O)(=O)c1ccc(Oc2ccccc2)cc1 [Example 79, N-{[(4αR,5S)-1-(4-fluorophenyl)-4α-methyl-1,4,4α,5,6,7-hexahydrocyclopenta[f]indazol-5-yl]methyl}-N-(2-hydroxyethyl)-4-phenoxybenzenesulfonamide] | 4.8 |
| C[C@]12Cc3cnn(-c4ccc(F)cc4)c3C=C1CC[C@@H]2CN(CCc1ccccc1F)S(=O)(=O)CC(F)(F)F [Example 89, 2,2,2-trifluoro-N-[2-(2-fluorophenyl)ethyl]-N-{[(4αR,5S)-1-(4-fluorophenyl)-4α-methyl-1,4,4α,5,6,7-hexahydrocyclopenta[f]indazol-5-yl]methyl}ethanesulfonamide] | 2.4 |
| C[C@]12Cc3cnn(-c4ccc(F)cc4)c3C=C1CC[C@@H]2CN(CCO)S(=O)(=O)c1ccc(Oc2cccc(Cl)c2C#N)cc1 [Example 69, 4-(3-chloro-2-cyanophenoxy)-N-{[(4αR,5S)-1-(4-fluorophenyl)-4α-methyl-1,4,4α,5,6,7-hexahydrocyclopenta[f]indazol-5-yl]methyl}-N-(2-hydroxyethyl)benzenesulfonamide] | 8.7 |
| Cn1cc(S(=O)(=O)N(CCO)C[C@H]2CCC3=Cc4c(cnn4-c4ccc(F)cc4)C[C@@]32C)c(C(F)(F)F)n1 [Example 65, N-{[(4αR,5S)-1-(4-fluorophenyl)-4α-methyl-1,4,4α,5,6,7-hexahydrocyclopenta[f]indazol-5-yl]methyl}-N-(2-hydroxyethyl)-1-methyl-3-(trifluoromethyl)-1H-pyrazole-4-sulfonamide] | 2.7 |
| C[C@]12Cc3cnn(-c4ccc(F)cc4)c3C=C1CC[C@@H]2CN(CCO)S(=O)(=O)c1ccccc1C#N [Example 78, 2-cyano-N-{[(4αR,5S)-1-(4-fluorophenyl)-4α-methyl-1,4,4α,5,6,7-hexahydrocyclopenta[f]indazol-5-yl]methyl}-N-(2-hydroxyethyl)benzenesulfonamide] | 2.3 |
| Cc1noc(C)c1S(=O)(=O)N(CCO)C[C@H]1CCC2=Cc3c(cnn3-c3ccc(F)cc3)C[C@@]21C [Example 71, N-{[(4αR,5S)-1-(4-fluorophenyl)-4α-methyl-1,4,4α,5,6,7-hexahydrocyclopenta[f]indazol-5-yl]methyl}-N-(2-hydroxyethyl)-3,5-dimethylisoxazole-4-sulfonamide] | 5 |
| C=CCN(C[C@H]1CCC2=Cc3c(cnn3-c3ccc(F)cc3)C[C@@]21C)S(=O)(=O)c1ccccc1F [Example 3, N-allyl-2-fluoro-N-{[(4αR,5S)-1-(4-fluorophenyl)-4α-methyl-1,4,4α,5,6,7-hexahydrocyclopenta[f]indazol-5-yl]methyl}benzenesulfonamide] | 0.8 |
| COc1ccccc1CCN(C[C@H]1CCC2=Cc3c(cnn3-c3ccc(F)cc3)C[C@@]21C)S(=O)(=O)c1ccccc1F [Example 90, 2-fluoro-N-{[(4αR,5S)-1-(4-fluorophenyl)-4α-methyl-1,4,4α,5,6,7-hexahydrocyclopenta[f]indazol-5-yl]methyl}-N-[2-(2-methoxyphenyl)ethyl]benzenesulfonamide] | 3.6 |
| C[C@]12Cc3cnn(-c4ccc(F)cc4)c3C=C1CC[C@@H]2CN(CCO)S(=O)(=O)Cc1cccc(C(F)(F)F)c1 [Example 63, N-{[(4αR,5S)-1-(4-fluorophenyl)-4α-methyl-1,4,4α,5,6,7-hexahydrocyclopenta[f]indazol-5-yl]methyl}-N-(2-hydroxyethyl)-1-[3-(trifluoromethyl)phenyl]methanesulfonamide] | 9.1 |
